Assay results from the METLIN SMRT retention time set (Domingo-Almenara et al. 2019).

Experiment: gradient 5% acetonitrile 3 min, to 50% in 2 min, to 85% in 15 min, held 3 min, 100 µL/min
Conditions: column: Zorbax Extend-C18 2.1 x 50 mm; eluents: water / acetonitrile, 0.1% formic acid
Method in brief: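 Pure standards were run in mixtures of ~100 molecules by HPLC coupled to a quadrupole time-of-flight mass spectrometer. The column was a Zorbax Extend-C18 (2.1 × 50 mm, 1.8 μm) at 100 μL/min, with water and acetonitrile each containing 0.1% formic acid, in positive and negative ionization mode. Dead and dwell volumes were 40 μL and 900 μL. Retention time was taken from computationally picked adduct peaks, each manually inspected, with data collected over 3 months.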

RP-LC retention time [s]	SMILES
750	Cc1cc(NC(=O)CSc2ccc(NC(=O)c3cccc(F)c3)nn2)no1
1230	CCCCOc1ccc(C(=O)N2CCCC2c2nc(-c3ccccc3)no2)cc1 (stereo not given)
1010	Cn1c(=O)oc2cc(-c3noc(-c4cc(F)ccc4F)n3)ccc21
693	CCOc1ccc(-c2csc3c(=O)n(Cc4ccncc4)cnc23)cc1OCC
755	CSc1ccc(-c2nc3nc(C)cc(C)n3c2Nc2ccccc2)cc1
798	CCc1cccc(NC(=O)Cn2ccc3ccc(-c4nnc(C)o4)cc32)c1
1220	COc1cc(Cl)ccc1-c1nc(-c2ccc3c(c2)oc(=O)n3C(C)C)no1
1090	Cc1nc(-c2csc(S(=O)(=O)N3CCCC(C(=O)Nc4ccc(C(C)C)cc4)C3)c2)no1 (stereo not given)
855	O=C(CCn1nnc2cc(-c3noc(Cc4cccc(F)c4)n3)ccc21)N1CCCC1
858	Cc1ccc(C)c(N2CCN(c3ccnc(SCC(=O)Nc4ccc5c(c4)OCO5)n3)CC2)c1
1100	COc1ccc(-c2nnc(-c3ccc(Cl)c(S(=O)(=O)N4CCCCC4)c3)o2)cc1
776	COc1ccc(C2C(C(=O)NCc3ccco3)c3ccccc3C(=O)N2C)cc1 (stereo not given)
845	Cc1ccc(-c2cc3n(n2)CCCN(C(=O)c2ccsc2)C3)cc1
656	O=C(NCc1ccc2c(c1)OCO2)C1CCN(C(=O)c2cc(-c3cccnc3)n[nH]2)CC1
1190	Cn1nccc1-c1cccc(-c2noc(-c3ccc(F)cc3Cl)n2)c1
762	CCSc1ccc(-c2cccc(NC(=O)COC)c2)nn1
769	CCOC(=O)c1cn(Cc2ccccc2)c2ccccc2c1=O
1050	O=C(Nc1ccc(Cl)c([N+](=O)[O-])c1)Nc1nc2ccccc2s1
781	O=C(Cn1c(=O)c(CCC(=O)NC2CC2)nc2ccccc21)Nc1cccc(Br)c1
997	Cc1csc(-n2nc(C)c(CC(=O)Nc3ccc(Cl)cc3)c2C)n1
735	CCc1cccc(NC(=O)C2CCN(S(=O)(=O)c3ccc4c(c3)CCCC(=O)N4)CC2)c1
1120	Cn1nccc1-c1cccc(-c2noc(-c3ccccc3)n2)c1
890	Cc1nc(-c2ccc(F)cc2)sc1C(=O)N1CCC(CC(=O)N(C)Cc2ccco2)CC1
756	COc1ccc(S(=O)(=O)NCc2cccnc2-c2cccc(C)c2)cc1Cl
883	CCC(C)NC(=O)c1cn(-c2ccc(-c3nc(C4CC4)no3)cn2)cn1 (stereo not given)
900	Cc1ccc(NC(=O)CN2CCc3ccccc3C2C(=O)N2CCCCC2)cc1C (stereo not given)
940	CN(C)S(=O)(=O)c1ccc(-c2nnc(C(=O)NCc3ccc(C(F)(F)F)cc3)o2)cc1
1190	Cc1ccc(NC(=O)CSc2nccc(N3CCN(c4cc(C)ccc4C)CC3)n2)c(Cl)c1

More lines, now with the values behind:

SMILES	RP-LC retention time [s]
COc1ccc(-c2cc3nc(C)cc(N4CCN(c5nc(C)cc(C)n5)CC4)n3n2)cc1OC	735
COc1ccc(CC(=O)N2CCC3(CC2)NC(=O)c2cc(F)ccc2N3C)cc1	768
COCCN1C(=O)CCc2cc(NS(=O)(=O)c3ccccc3F)ccc21	726
O=C(Nc1ccc(OCC(=O)N2CCN(c3ccccc3)CC2)nc1)C1CC1	730
COc1ccc(C(=O)N2CCC3(C2)C(=O)N(C)c2ccccc23)cc1 (stereo not given)	743
CCC(=O)N1CCc2sc(S(=O)(=O)N3CCN(c4ccccc4C)CC3)cc2C1	1030
CC(C)NC(=O)C1CCCCN1S(=O)(=O)c1ccc(Br)cc1 (stereo not given)	969
CCSc1nc2ccc(NS(=O)(=O)c3ccc(F)cc3)cc2s1	1010
O=C(Cn1ccnc1)N1CCC(OCc2nc(C3CC3)no2)CC1	582
O=C(NCc1ccc(F)cc1)C1CCN(S(=O)(=O)c2ccc3[nH]c(=O)sc3c2)CC1	742
COc1ccc(CNS(=O)(=O)c2cc3c(s2)CCN(C(=O)C2CC2)C3)cc1	812
CCC1(O)CCOC2(CCN(C(=O)CC3CC3)CC2)C1 (stereo not given)	627
O=C(CCNC(=O)Cn1cnc2ccccc2c1=O)NCCc1c[nH]c2ccccc12	668
CC(=O)N1CCc2sc(S(=O)(=O)N3CCN(c4cc(C)ccc4C)CC3)cc2C1	1010
O=C(NC1CCCN(c2cc(N3CCCC3)ncn2)C1)c1ccccn1 (stereo not given)	606
CC(C(=O)N1CCN(c2cc(=O)n(C)c(=O)n2C)CC1)N1C(=O)COc2ccccc21 (stereo not given)	627
COc1ccc(CCN2C(=O)CC(N3CCN(c4ccccc4)CC3)C2=O)cc1OC (stereo not given)	780
O=C(NCc1ccc(Cl)cc1)c1c(O)c2cccnc2n(-c2ccc(F)cc2)c1=O	1230
O=C(Cn1c(=O)c2cccn2c2ccc(F)cc21)NCCCN1CCCCC1	600

SMILES	RP-LC retention time [s]
CCSc1nnc(-c2nn(C)c3c2CN(C(=O)c2ccccc2F)CC3)n1C	732
Cc1ccccc1CNC(=O)CN1C(=O)CCCc2cc(S(=O)(=O)N3CCCC3)ccc21	916
CC1(C(=O)NCc2ccccc2)CCN(S(=O)(=O)c2ccccc2C(F)(F)F)CC1	970
O=C(CN1CCN(C(=O)Nc2ccc(Br)cc2)CC1=O)NCc1ccccn1	615
CCc1nnc(-c2coc(S(=O)(=O)N3CCN(C4CCCCC4)CC3)c2)o1	628
Cc1noc([C@@H]2CN(C(=O)c3ccc(Cn4ccnc4)o3)C[C@H]2C(N)=O)n1	538
COc1cc(C2CN(C(=O)c3ccc4c(c3)OCO4)CC2C(=O)NCCC(C)C)cc(OC)c1OC (stereo not given)	738
Cc1cccc(OCc2nc(CCN(C)C(=O)NC3CCCC3)no2)c1	894
O=C(NCc1ccccc1)C1CCCN(S(=O)(=O)c2c[nH]c(C(=O)N3CCCCCC3)c2)C1 (stereo not given)	826
COC(=O)c1ccc(NC(=O)N2CCCC2c2c(C)noc2C)cc1 (stereo not given)	751
COC(=O)C1CN(c2ccc(OC)cc2)N=C1C(C)=O (stereo not given)	850
O=C(C1CCCO1)N1CCN(c2nc(CN3CCCCC3)cs2)CC1 (stereo not given)	579
CCSc1nnc(NC(=O)C2CCCN(Cc3nc(-c4cccs4)no3)C2)s1 (stereo not given)	769
Cc1ccc(CN2CCCn3nc(C(=O)NCCCN4CCOCC4)cc3C2=O)cc1	618
Cc1ccsc1C(=O)N1C[C@@H]2CCCN3CCC[C@@H]([C@H]23)[C@H]1CCCC(=O)NCC1CC1	612
O=C(Cc1c[nH]c2ccccc12)N1CCC(c2nc(C3CC3)no2)C1 (stereo not given)	764
Cc1ccc(N(C)C(=O)C2CCCN2S(=O)(=O)c2cc3c(cc2C)NC(=O)C(C)O3)cc1 (stereo not given)	814
Cn1c(=O)n(C2CCN(C(=O)Cc3ccsc3)CC2)c2ncncc21	630
